Data on one compound can be found in PMC10023972, “Saturated fatty acid– and/or monounsaturated fatty acid–containing phosphatidic acids selectively interact with heat shock protein 27” (The Journal of Biological Chemistry, 2023).

In this assay the target is T1, HSP27 (heat shock protein 27, HSPβ1; 6×His-HSP27) (Homo sapiens, UniProt P04792).
T1 construct: gene HSPB1; full length (205 aa), N-terminal 6×His tag (pET-28a), E. coli Rosetta 2 (DE3), Ni-NTA, ~30 kDa band; large oligomer (more than octamer)
T1 sequence (P04792 whole entry): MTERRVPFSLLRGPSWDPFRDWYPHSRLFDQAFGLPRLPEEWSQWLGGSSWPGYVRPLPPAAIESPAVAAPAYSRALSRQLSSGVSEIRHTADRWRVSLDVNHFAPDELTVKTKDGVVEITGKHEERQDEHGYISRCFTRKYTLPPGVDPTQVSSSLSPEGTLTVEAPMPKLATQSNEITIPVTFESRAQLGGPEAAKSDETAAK
Nature of the assay: liposome co-sedimentation (ultracentrifugation), Western blot densitometry. Type of assay: binding. The conditions noted are these: unreliable; extrapolated beyond the 0-25 μM range; PS in liposomes (PS/egg PC/cholesterol 20/50/30 mol%), 0.1 μM protein, pH 7.4, 4 °C.

For the compound `CCCCCCCCCCCCCCCC(=O)OC[C@H](COP(=O)(O)OC[C@H](N)C(=O)O)OC(=O)CCCCCCCCCCCCCCC` [16:0/16:0-PS, 1,2-dipalmitoyl-sn-glycero-3-phosphoserine], the “extrapolated Kd” value is ~ 100 μM.
